From ChEMBL document CHEMBL1144479, “Synthesis and antimicrobial studies on novel chloro-fluorine containing hydroxy pyrazolines” (2007)
Values after ≈ are worked out from the molar mass of the structure shown.

system: Escherichia coli; test: microbe, parasite or virus in culture; type: functional, ATCC 25922; conditions: not given

`O=C(O)c1cn(C2CC2)c2cc(N3CCNCC3)c(F)cc2c1=O` [CIPROFLOXACIN] was tested, and the “inhibition zone (IZ)” value was 18 mm.

same assay, conditions: Escherichia coli, ATCC 25922, 24 h

`O=C(COc1ccc(Cl)cc1)N1N=C(c2ccccc2)CC1(O)c1cc(F)c(Cl)cc1Cl` (stereo not drawn) and `O=C(COc1ccc(Cl)cc1)N1N=C(c2ccc(Cl)cc2Cl)CC1(O)c1cc(F)c(Cl)cc1Cl` (stereo not drawn) cannot be ordered by MIC: greater than 100 µg/mL for the first, greater than 100 µg/mL for the second.

Going from `COc1ccc(C2=NN(C(=O)COc3ccc(C)cc3)C(O)(c3cc(F)c(Cl)cc3Cl)C2)cc1` (stereo not drawn) to `O=C(O)c1cn(C2CC2)c2cc(N3CCNCC3)c(F)cc2c1=O` [CIPROFLOXACIN], the MIC falls from greater than 100 µg/mL to 12.5 µg/mL (≈ 37.7 µM).

system: Talaromyces marneffei; test: Antifungal activity against Penicillium marneffei after 3 to 4 days by serial plate dilution method; type: functional; conditions: not given

In order of rising “inhibition zone (IZ)” value:
1. O=C(COc1ccc(Cl)cc1)N1N=C(c2ccccc2)CC1(O)c1cc(F)c(Cl)cc1Cl (stereo not drawn)  10 mm
2. O=C(COc1ccc(Cl)cc1)N1N=C(c2ccc(Cl)cc2Cl)CC1(O)c1cc(F)c(Cl)cc1Cl (stereo not drawn)  10 mm
3. COc1ccc(C2=NN(C(=O)COc3ccc(C)cc3)C(O)(c3cc(F)c(Cl)cc3Cl)C2)cc1 (stereo not drawn)  12 mm
4. OC(Cn1cncn1)(Cn1cncn1)c1ccc(F)cc1F [FLUCONAZOLE]  21 mm

same assay, conditions: Talaromyces marneffei

In order of falling MIC:
1. O=C(COc1ccc(Cl)cc1)N1N=C(c2ccccc2)CC1(O)c1cc(F)c(Cl)cc1Cl (stereo not drawn)  25 µg/mL (≈ 50.6 µM)
2. O=C(COc1ccc(Cl)cc1)N1N=C(c2ccc(Cl)cc2Cl)CC1(O)c1cc(F)c(Cl)cc1Cl (stereo not drawn)  25 µg/mL (≈ 44.4 µM)
3. COc1ccc(C2=NN(C(=O)COc3ccc(C)cc3)C(O)(c3cc(F)c(Cl)cc3Cl)C2)cc1 (stereo not drawn)  12.5 µg/mL (≈ 24.8 µM)
4. OC(Cn1cncn1)(Cn1cncn1)c1ccc(F)cc1F [FLUCONAZOLE]  6.25 µg/mL (≈ 20.4 µM)

system: Aspergillus fumigatus; test: Antifungal activity against Aspergillus fumigatus NCIM no. 902 after 3 to 4 days by serial plate dilution method; type: functional; conditions: not given

In order of rising “inhibition zone (IZ)” value:
1. COc1ccc(C2=NN(C(=O)COc3ccc(C)cc3)C(O)(c3cc(F)c(Cl)cc3Cl)C2)cc1 (stereo not drawn)  12 mm
2. O=C(COc1ccc(Cl)cc1)N1N=C(c2ccccc2)CC1(O)c1cc(F)c(Cl)cc1Cl (stereo not drawn)  14 mm
3. OC(Cn1cncn1)(Cn1cncn1)c1ccc(F)cc1F [FLUCONAZOLE]  22 mm

same assay, conditions: Aspergillus fumigatus

Compared with `O=C(COc1ccc(Cl)cc1)N1N=C(c2ccccc2)CC1(O)c1cc(F)c(Cl)cc1Cl` (stereo not drawn), `O=C(COc1ccc(Cl)cc1)N1N=C(c2ccc(Cl)cc2Cl)CC1(O)c1cc(F)c(Cl)cc1Cl` (stereo not drawn) is higher in MIC: 12.5 µg/mL (≈ 25.3 µM) for the first, greater than 100 µg/mL for the second.

First: COc1ccc(C2=NN(C(=O)COc3ccc(C)cc3)C(O)(c3cc(F)c(Cl)cc3Cl)C2)cc1 (stereo not drawn)
Second: OC(Cn1cncn1)(Cn1cncn1)c1ccc(F)cc1F [FLUCONAZOLE]
The MIC of the first is 2-fold higher: 12.5 µg/mL (≈ 24.8 µM) for the first, 6.25 µg/mL (≈ 20.4 µM) for the second.

system: Trichophyton benhamiae; test: Antifungal activity against Trichophyton mentagrophytes after 3 to 4 days by serial plate dilution method; type: functional, Arthroderma benhamiae; conditions: not given

In order of rising “inhibition zone (IZ)” value:
1. O=C(COc1ccc(Cl)cc1)N1N=C(c2ccccc2)CC1(O)c1cc(F)c(Cl)cc1Cl (stereo not drawn)  7 mm
2. COc1ccc(C2=NN(C(=O)COc3ccc(C)cc3)C(O)(c3cc(F)c(Cl)cc3Cl)C2)cc1 (stereo not drawn)  10 mm
3. OC(Cn1cncn1)(Cn1cncn1)c1ccc(F)cc1F [FLUCONAZOLE]  20 mm

same assay, conditions: Trichophyton benhamiae

In order of rising MIC:
1. OC(Cn1cncn1)(Cn1cncn1)c1ccc(F)cc1F [FLUCONAZOLE]  6.25 µg/mL (≈ 20.4 µM)
2. O=C(COc1ccc(Cl)cc1)N1N=C(c2ccccc2)CC1(O)c1cc(F)c(Cl)cc1Cl (stereo not drawn)  25 µg/mL (≈ 50.6 µM)
3. COc1ccc(C2=NN(C(=O)COc3ccc(C)cc3)C(O)(c3cc(F)c(Cl)cc3Cl)C2)cc1 (stereo not drawn)  25 µg/mL (≈ 49.7 µM)

system: Staphylococcus aureus; test: microbe, parasite or virus in culture; type: functional, ATCC 25923; conditions: not given

In order of rising “inhibition zone (IZ)” value:
1. O=C(COc1ccc(Cl)cc1)N1N=C(c2ccccc2)CC1(O)c1cc(F)c(Cl)cc1Cl (stereo not drawn)  14 mm
2. O=C(O)c1cn(C2CC2)c2cc(N3CCNCC3)c(F)cc2c1=O [CIPROFLOXACIN]  19 mm

same assay, conditions: Staphylococcus aureus, ATCC 25923, 24 h

First: O=C(COc1ccc(Cl)cc1)N1N=C(c2ccccc2)CC1(O)c1cc(F)c(Cl)cc1Cl (stereo not drawn)
Second: O=C(COc1ccc(Cl)cc1)N1N=C(c2ccc(Cl)cc2Cl)CC1(O)c1cc(F)c(Cl)cc1Cl (stereo not drawn)
The MIC of the first is lower: 12.5 µg/mL (≈ 25.3 µM) for the first, greater than 100 µg/mL for the second.

For `COc1ccc(C2=NN(C(=O)COc3ccc(C)cc3)C(O)(c3cc(F)c(Cl)cc3Cl)C2)cc1` (stereo not drawn), the MIC was greater than 100 µg/mL.

system: Candida albicans; test: Antifungal activity against Candida albicans NCIM no. 300 after 3 to 4 days by serial plate dilution method; type: functional; conditions: not given

With `OC(Cn1cncn1)(Cn1cncn1)c1ccc(F)cc1F` [FLUCONAZOLE] the “inhibition zone (IZ)” value was 20 mm.

same assay, conditions: Candida albicans

`O=C(COc1ccc(Cl)cc1)N1N=C(c2ccccc2)CC1(O)c1cc(F)c(Cl)cc1Cl` (stereo not drawn) and `O=C(COc1ccc(Cl)cc1)N1N=C(c2ccc(Cl)cc2Cl)CC1(O)c1cc(F)c(Cl)cc1Cl` (stereo not drawn) cannot be ordered by MIC: greater than 100 µg/mL for the first, greater than 100 µg/mL for the second.

Compared with `COc1ccc(C2=NN(C(=O)COc3ccc(C)cc3)C(O)(c3cc(F)c(Cl)cc3Cl)C2)cc1` (stereo not drawn), `OC(Cn1cncn1)(Cn1cncn1)c1ccc(F)cc1F` [FLUCONAZOLE] is lower in MIC: greater than 100 µg/mL for the first, 6.25 µg/mL (≈ 20.4 µM) for the second.

system: Streptococcus pyogenes; test: Antibacterial activity against Streptococcus pyogenes after 24 hrs by disc diffusion method; type: functional; conditions: not given

`O=C(O)c1cn(C2CC2)c2cc(N3CCNCC3)c(F)cc2c1=O` [CIPROFLOXACIN] was tested, and the “inhibition zone (IZ)” value was 20 mm.

same assay, conditions: Streptococcus pyogenes, 24 h

`O=C(COc1ccc(Cl)cc1)N1N=C(c2ccccc2)CC1(O)c1cc(F)c(Cl)cc1Cl` (stereo not drawn) and `O=C(COc1ccc(Cl)cc1)N1N=C(c2ccc(Cl)cc2Cl)CC1(O)c1cc(F)c(Cl)cc1Cl` (stereo not drawn) cannot be ordered by MIC: greater than 100 µg/mL for the first, greater than 100 µg/mL for the second.

Compared with `COc1ccc(C2=NN(C(=O)COc3ccc(C)cc3)C(O)(c3cc(F)c(Cl)cc3Cl)C2)cc1` (stereo not drawn), `O=C(O)c1cn(C2CC2)c2cc(N3CCNCC3)c(F)cc2c1=O` [CIPROFLOXACIN] is lower in MIC: greater than 100 µg/mL for the first, 12.5 µg/mL (≈ 37.7 µM) for the second.

system: Klebsiella pneumoniae; test: Antibacterial activity against Klebsiella pneumoniae after 24 hrs by disc diffusion method; type: functional; conditions: not given

In order of falling “inhibition zone (IZ)” value:
1. O=C(O)c1cn(C2CC2)c2cc(N3CCNCC3)c(F)cc2c1=O [CIPROFLOXACIN]  20 mm
2. O=C(COc1ccc(Cl)cc1)N1N=C(c2ccccc2)CC1(O)c1cc(F)c(Cl)cc1Cl (stereo not drawn)  10 mm

same assay, conditions: Klebsiella pneumoniae, 24 h

First: O=C(COc1ccc(Cl)cc1)N1N=C(c2ccccc2)CC1(O)c1cc(F)c(Cl)cc1Cl (stereo not drawn)
Second: O=C(COc1ccc(Cl)cc1)N1N=C(c2ccc(Cl)cc2Cl)CC1(O)c1cc(F)c(Cl)cc1Cl (stereo not drawn)
The MIC of the first is lower: 25 µg/mL (≈ 50.6 µM) for the first, greater than 100 µg/mL for the second.

Going from `COc1ccc(C2=NN(C(=O)COc3ccc(C)cc3)C(O)(c3cc(F)c(Cl)cc3Cl)C2)cc1` (stereo not drawn) to `O=C(O)c1cn(C2CC2)c2cc(N3CCNCC3)c(F)cc2c1=O` [CIPROFLOXACIN], the MIC falls from greater than 100 µg/mL to 6.25 µg/mL (≈ 18.9 µM).

system: Pseudomonas aeruginosa; test: microbe, parasite or virus in culture; type: functional, ATCC 27853; conditions: not given

In order of rising “inhibition zone (IZ)” value:
1. COc1ccc(C2=NN(C(=O)COc3ccc(C)cc3)C(O)(c3cc(F)c(Cl)cc3Cl)C2)cc1 (stereo not drawn)  10 mm
2. O=C(O)c1cn(C2CC2)c2cc(N3CCNCC3)c(F)cc2c1=O [CIPROFLOXACIN]  25 mm

same assay, conditions: Pseudomonas aeruginosa, ATCC 27853, 24 h

`O=C(COc1ccc(Cl)cc1)N1N=C(c2ccccc2)CC1(O)c1cc(F)c(Cl)cc1Cl` (stereo not drawn) and `O=C(COc1ccc(Cl)cc1)N1N=C(c2ccc(Cl)cc2Cl)CC1(O)c1cc(F)c(Cl)cc1Cl` (stereo not drawn) cannot be ordered by MIC: greater than 100 µg/mL for the first, greater than 100 µg/mL for the second.

`COc1ccc(C2=NN(C(=O)COc3ccc(C)cc3)C(O)(c3cc(F)c(Cl)cc3Cl)C2)cc1` (stereo not drawn) showed an MIC of 25 µg/mL (≈ 49.7 µM).

system: Aspergillus flavus; test: Antifungal activity against Aspergillus flavus NCIM no. 524 after 3 to 4 days by serial plate dilution method; type: functional; conditions: not given

In order of rising “inhibition zone (IZ)” value:
1. O=C(COc1ccc(Cl)cc1)N1N=C(c2ccccc2)CC1(O)c1cc(F)c(Cl)cc1Cl (stereo not drawn)  9 mm
2. OC(Cn1cncn1)(Cn1cncn1)c1ccc(F)cc1F [FLUCONAZOLE]  18 mm

same assay, conditions: Aspergillus flavus

Going from `O=C(COc1ccc(Cl)cc1)N1N=C(c2ccccc2)CC1(O)c1cc(F)c(Cl)cc1Cl` (stereo not drawn) to `O=C(COc1ccc(Cl)cc1)N1N=C(c2ccc(Cl)cc2Cl)CC1(O)c1cc(F)c(Cl)cc1Cl` (stereo not drawn), the MIC rises from 25 µg/mL (≈ 50.6 µM) to greater than 100 µg/mL.

First: COc1ccc(C2=NN(C(=O)COc3ccc(C)cc3)C(O)(c3cc(F)c(Cl)cc3Cl)C2)cc1 (stereo not drawn)
Second: OC(Cn1cncn1)(Cn1cncn1)c1ccc(F)cc1F [FLUCONAZOLE]
The MIC of the first is higher: greater than 100 µg/mL for the first, 12.5 µg/mL (≈ 40.8 µM) for the second.
